{
  "source": "patent US11795152B2",
  "about": "“Crystal form of tafamidis and preparation method therefor and use thereof” (CRYSTAL PHARMACEUTICAL (SUZHOU) CO., LTD., priority 2019, dated 2023)",
  "format_in_all_cases": "physicochemical",
  "key": {"[1]": {"assay": "Stability of drug substance on storage (XRPD, HPLC purity)", "conditions": "for chemical purity during storage: drug substance", "from_the_text": "Crystalline form and chemical impurity were checked by XRPD and HPLC, respectively.\nCrystalline form and purity were checked by XRPD and HPLC, respectively."}, "[2]": {"assay": "Hygroscopicity by dynamic vapor sorption (DVS)", "conditions": "80% RH", "experimental": "Dynamic Vapor Sorption (DVS) is measured via a SMS (Surface Measurement Systems Ltd.) intrinsic DVS instrument. Its control software is DVS-Intrinsic control software. Typical parameters for DVS tests are as follows:\nGas and flow rate: N2, 200 mL/min\nRH range: 0% RH to 95% RH\nThe weight gains at each relative humidity were recorded in a cycle of 0-95%-0 RH. The XRPD patterns were collected before and after the DVS test and depicted in FIG. 11.\nDescription and definition of hygroscopicity (general notice 9103 drug hygroscopicity test guidelines in 2015 edition of Chinese Pharmacopoeia, test at 25° C.+/−1° C., 80% RH. The definition of hygroscopicity in the 9th European Pharmacopoeia 5.11 is in consistent with the Chinese Pharmacopoeia.). • deliquescent: sufficient water is absorbed to form a solution. • very hygroscopic: increase in mass is equal to or greater than 15 percent. • hygroscopic: increase in mass is less than 15 percent and equal to or greater than 2 percent. • slightly hygroscopic: increase in mass is less than 2 percent and equal to or greater than 0.2 percent. • non hygroscopic or almost non hygroscopic: Increase in mass is less than 0.2%.\nThe weight gains at each relative humidity were recorded in a cycle of 0-95%-0RH. The XRPD patterns were collected before and after the DVS test and depicted in FIG. 22. […] Form CSVI is slightly hygroscopic.\nThe weight gains at each relative humidity were recorded in a cycle of 0-95%-0RH. The XRPD patterns were collected before and after the DVS test and depicted in FIG. 31."}, "[3]": {"assay": "Dissolution profile of tablets in pH6.8 PBS+1% Tween 80", "conditions": "tablet 61 mg, paddle 75 rpm, 37° C.", "experimental": "(§1) The cumulative dissolution was measured at different time in pH6.8 PBS+1% Tween 80 and pH6.8 PBS+3% Tween 80. The dissolution results are presented in Table 24 (FIG. 23) and Table 25 (FIG. 24).\nThe cumulative dissolution was measured at different time in pH6.8 PBS+1% Tween 80."}, "[4]": {"assay": "Dissolution profile of tablets in pH6.8 PBS+3% Tween 80", "conditions": "tablet 61 mg, paddle 75 rpm, 37° C.", "experimental": "as §1"}, "[5]": {"conditions": "40° C./75% RH, Sealed, 6 months"}, "[6]": {"conditions": "60° C./75% RH, Sealed, 2 months"}},
  "data": [
    {"smiles": "O=C(O)CCCC(=O)O.O=C(O)c1ccc2nc(-c3cc(Cl)cc(Cl)c3)oc2c1.O=C(O)c1ccc2nc(-c3cc(Cl)cc(Cl)c3)oc2c1", "note": "[Form CSVI]", "values": [
      {"measurement": "Purity", "setting": "[1]; 25° C./60% RH, Open, 6 months", "result": 99.96, "unit": "%"},
      {"measurement": "Solid Form", "setting": "[1]; 25° C./60% RH, Open, 6 months", "result": "Form CSVI"},
      {"measurement": "Purity", "setting": "[1]; 40° C./75% RH, Open, 6 months", "result": 99.95, "unit": "%"},
      {"measurement": "Solid Form", "setting": "[1]; 40° C./75% RH, Open, 6 months", "result": "Form CSVI"},
      {"measurement": "Purity", "setting": "[1]; [5]", "result": 99.95, "unit": "%"},
      {"measurement": "Solid Form", "setting": "[1]; [5]", "result": "Form CSVI"},
      {"measurement": "Purity", "setting": "[1]; [6]", "result": 99.95, "unit": "%"},
      {"measurement": "Solid Form", "setting": "[1]; [6]", "result": "Form CSVI"},
      {"measurement": "Purity", "setting": "[1]; Initial", "result": 99.95, "unit": "%"},
      {"measurement": "Solid Form", "setting": "[1]; Initial", "result": "Form CSVI"},
      {"measurement": "chemical purity during storage", "setting": "[1]; 25° C./60% RH", "result": "above 99.9%"},
      {"measurement": "chemical purity during storage", "setting": "[1]; 40° C./75% RH and 60° C./75% RH", "result": "above 99.9%"},
      {"measurement": "Weight gain", "setting": "[2]; 25° C., DVS", "result": 0.21, "unit": "%"},
      {"measurement": "hygroscopicity", "setting": "[2]; pharmacopoeia definition", "result": "slightly hygroscopic (increase in mass is less than 2 percent and equal to or greater than 0.2 percent)"},
      {"measurement": "Cumulative drug release in pH 6.8 PBS + 1% Tween 80 (%)", "setting": "[3]; 0 min", "result": 0.0, "unit": "%"},
      {"measurement": "Cumulative drug release in pH 6.8 PBS + 1% Tween 80 (%)", "setting": "[3]; 5 min", "result": 19.1, "unit": "%"},
      {"measurement": "Cumulative drug release in pH 6.8 PBS + 1% Tween 80 (%)", "setting": "[3]; 10 min", "result": 28.3, "unit": "%"},
      {"measurement": "Cumulative drug release in pH 6.8 PBS + 1% Tween 80 (%)", "setting": "[3]; 15 min", "result": 34.7, "unit": "%"},
      {"measurement": "Cumulative drug release in pH 6.8 PBS + 1% Tween 80 (%)", "setting": "[3]; 20 min", "result": 39.8, "unit": "%"},
      {"measurement": "Cumulative drug release in pH 6.8 PBS + 1% Tween 80 (%)", "setting": "[3]; 30 min", "result": 47.4, "unit": "%"},
      {"measurement": "Cumulative drug release in pH 6.8 PBS + 1% Tween 80 (%)", "setting": "[3]; 45 min", "result": 56.0, "unit": "%"},
      {"measurement": "Cumulative drug release in pH 6.8 PBS + 1% Tween 80 (%)", "setting": "[3]; 60 min", "result": 62.1, "unit": "%"},
      {"measurement": "Cumulative drug release in pH 6.8 PBS + 1% Tween 80 (%)", "setting": "[3]; 90 min", "result": 70.4, "unit": "%"},
      {"measurement": "Cumulative drug release in pH 6.8 PBS + 1% Tween 80 (%)", "setting": "[3]; 120 min", "result": 75.7, "unit": "%"},
      {"measurement": "Cumulative drug release in pH 6.8 PBS + 1% Tween 80 (%)", "setting": "[3]; 150 min", "result": 80.7, "unit": "%"},
      {"measurement": "Cumulative drug release in pH 6.8 PBS + 3% Tween 80 (%)", "setting": "[4]; 0 min", "result": 0.0, "unit": "%"},
      {"measurement": "Cumulative drug release in pH 6.8 PBS + 3% Tween 80 (%)", "setting": "[4]; 5 min", "result": 27.0, "unit": "%"},
      {"measurement": "Cumulative drug release in pH 6.8 PBS + 3% Tween 80 (%)", "setting": "[4]; 10 min", "result": 38.2, "unit": "%"},
      {"measurement": "Cumulative drug release in pH 6.8 PBS + 3% Tween 80 (%)", "setting": "[4]; 15 min", "result": 46.4, "unit": "%"},
      {"measurement": "Cumulative drug release in pH 6.8 PBS + 3% Tween 80 (%)", "setting": "[4]; 20 min", "result": 51.9, "unit": "%"},
      {"measurement": "Cumulative drug release in pH 6.8 PBS + 3% Tween 80 (%)", "setting": "[4]; 30 min", "result": 60.4, "unit": "%"},
      {"measurement": "Cumulative drug release in pH 6.8 PBS + 3% Tween 80 (%)", "setting": "[4]; 45 min", "result": 68.5, "unit": "%"},
      {"measurement": "Cumulative drug release in pH 6.8 PBS + 3% Tween 80 (%)", "setting": "[4]; 60 min", "result": 73.8, "unit": "%"},
      {"measurement": "Cumulative drug release in pH 6.8 PBS + 3% Tween 80 (%)", "setting": "[4]; 90 min", "result": 79.2, "unit": "%"},
      {"measurement": "Cumulative drug release in pH 6.8 PBS + 3% Tween 80 (%)", "setting": "[4]; 120 min", "result": 81.9, "unit": "%"}
    ]}
  ]
}
